In patent US20120058158A1, “Sublingual Pharmaceutical Composition Comprising a Neutral Oil” (priority 2009, published 2012):
In brackets after ≈: the same amount, converted by molar mass. Entries after “also recorded” stand apart in the source; their conditions may differ. Counter-ions that a name gives are not always drawn. Like-named read-outs stand apart in the source and are kept apart here.

How the values were obtained:
[1] = Solubility tests in Miglyol 810; conditions: Miglyol 810, magnetic stirring; amount and volume per drug as in the block
[2] = Repeat-dose artemether sublingual spray study (avoidance of autoinduction); type: in vivo, human; conditions: 30 mg artemether sublingual spray single on days 1 and 5, twice daily on days 2, 3 and 4
Experimental: A similar avoidance of autoinduction is expected with delivery by the transmucosal buccal or nasal route. In confidential trials, volunteers followed the following treatment: A single administration of 30 mg artemether sublingual spray 6 mg/actuation on days 1 and 5 following an overnight fast, and twice daily administrations of 30 mg artemether sublingual spray 3 mg/actuation on days 2, 3, and 4 following a morning or evening meal. Blood samples were collected for pharmacokinetic analysis at the following time points: Day 1: Predose, 0.25, 0.5, 0.75, 1, 1.5, 2, 2.5, 3, 4, 6, 8, and 12 h after dosing. Days 2, 3, and 4: pre morning dose and 0.5, 1, 2 and 4 h after morning dose and pre evening dose and 1 hour after evening dose. Day 5: Predose, 0.25, 0.5, 0.75, 1, 1.5, 2, 2.5, 3, 4, 6, 8, 12 h and 24 h after dosing.

[3] = Solubility enhancement by heat or essential oil (menthol) in Miglyol; type: physicochemical; conditions: heat or menthol added (separate solutions)
[4] = Single-dose pharmacokinetic study, artemether sublingual spray vs oral tablets; type: in vivo, human; conditions: for λz elimination rate constant, Plasma Artemether / Cmax / Tmax / AUC(0-t) / Vd/F / half-life: n = 16, mean ± SD; for Cmax / Tmax / AUC(0-t) / Vd/F / half-life / bioavailability: male, human, plasma; for AUC(0-t): read-out: AUC0-12, Plasma Artemether; for Vd/F: read-out: V/F apparent volume of distribution, Plasma Artemether; for half-life: read-out: t1/2 elimination half-life, Plasma Artemether (converted); for bioavailability: other: sublingual, ± S.D.
Experimental: Trials were carried out on healthy male adult human volunteers (16 subjects per cohort), and subject to normal ethical approval. Three single-dose regimes according to the present invention were studied, and compared to a regime using oral-dosed tablets, as follows: Spray formulations of artemether were prepared as detailed above, and administered, on a single occasion, to a group of volunteers by the sublingual route. […] Following administration of each dosage regime, blood samples were taken from the subjects, and plasma concentrations of artemether and its immediate metabolite dihydroartemesinin were determined, in order to compare bioavailability by the two routes.

physchem = conditions: oil or lipid
[5] = 15 mg, T1: single sublingual 15 mg Artemether sublingual spray, 3 mg per actuation
[6] = 30 mg, T2: single sublingual 30 mg Artemether sublingual spray, 3 mg per actuation
[7] = 30 mg, T3: single sublingual 30 mg Artemether sublingual spray, 6 mg per actuation
[8] = po, 30 mg, T4: single oral 30 mg Artemether Tablets, 10 mg per Tablet

In the case of COc1cccc(C2(O)CCCCC2CN(C)C)c1 (stereo not drawn) [Tramadol HCl], the “solubility in Miglyol” value [1] is reported as “insoluble”.
With C[C@H]1[C@@H](O)O[C@@H]2O[C@@]3(C)CC[C@H]4[C@H](C)CC[C@@H]1[C@@]24OO3 [Dihydroartemesinin] the “pharmacokinetic analysis of plasma dihydroartemesinin, day 1 vs day 5” value [2] was “effectively identical response”.
With O=C1CC[C@@]2(O)[C@H]3Cc4ccc(O)c5c4[C@@]2(CCN3CC2CC2)[C@H]1O5 [Naltrexone Base] the “solubility in Miglyol with the addition of heat or menthol” value [3] was “soluble with the addition of heat or menthol” and the “solubility in Miglyol” value [1] was “sparingly soluble”.
In the case of CO[C@H]1O[C@@H]2O[C@@]3(C)CC[C@H]4[C@H](C)CC[C@@H]([C@H]1C)[C@@]24OO3 [Artemether], the “absorption (comparison of AUC0-12), sublingual spray vs oral tablet dosing” value ([4]; 12 hours following the doses, preliminary results) is reported as “significant and surprisingly higher absorption”, the “λz elimination rate constant, Plasma Artemether” value (shortened to “λz elimination rate constant”) ([4]; T1: single sublingual 15 mg Artemether sublingual spray, 3 mg per actuation) is reported as 1.11 ± 0.40 h⁻¹ and the “λz elimination rate constant” value ([4]; T2: single sublingual 30 mg Artemether sublingual spray, 3 mg per actuation) is reported as 0.56 ± 0.20 h⁻¹. For the same compound, the “λz elimination rate constant” value ([4]; T3: single sublingual 30 mg Artemether sublingual spray, 6 mg per actuation) was 0.59 ± 0.25 h⁻¹, the “λz elimination rate constant” value ([4]; T4: single oral 30 mg Artemether Tablets, 10 mg per Tablet) was 0.31 ± 0.15 h⁻¹ and the Cmax [4, 5] was 16.1 ± 8.69 ng/mL. For the same compound, the Tmax [4, 5] was 1.7 ± 0.68 h, the AUC(0-t) [4, 5] was 25.9 ± 13.9 ng·h/mL and the Vd/F [4, 5] was 680 ± 330 L. It also gave a half-life [4, 5] of 0.72 ± 0.3 h, a Cmax [4, 6] of 32.1 ± 16.4 ng/mL and a Tmax [4, 6] of 1.73 ± 0.82 h. The AUC(0-t) [4, 6] was 76.6 ± 43.1 ng·h/mL, the Vd/F [4, 6] was 1000 ± 550 L and the half-life [4, 6] was 1.39 ± 0.49 h. The Cmax [4, 7] was 35.2 ± 23.9 ng/mL, the Tmax [4, 7] was 1.67 ± 0.77 h and the AUC(0-t) [4, 7] was 71.1 ± 41.1 ng·h/mL. The Vd/F [4, 7] was 1010 ± 490 L, the half-life [4, 7] was 1.4 ± 0.59 h and the bioavailability ([4]; 15 mg, T1 (15 mg sublingual spray, 3 mg/actuation) vs T4 (30 mg oral tablets), read-out: F-value FT1-T4 (relative bioavailability of artemether)) was 167 ± 60%. For the same compound, the bioavailability ([4]; 30 mg, T2 (30 mg sublingual spray, 3 mg/actuation) vs T4 (30 mg oral tablets), read-out: F-value FT2-T4 (relative bioavailability of artemether)) was 224 ± 92%, the bioavailability ([4]; 30 mg, T3 (30 mg sublingual spray, 6 mg/actuation) vs T4 (30 mg oral tablets), read-out: F-value FT3-T4 (relative bioavailability of artemether)) was 209 ± 69% and the Cmax [4, 8] was 10.1 ± 7.19 ng/mL. For the same compound, the Tmax [4, 8] was 1.02 ± 0.86 h, the AUC(0-t) [4, 8] was 34.6 ± 21 ng·h/mL and the Vd/F [4, 8] was 3900 ± 2900 L. For the same compound, the half-life [4, 8] was 3.44 ± 4.26 h.
For Oc1ccc2c3c1O[C@H]1[C@@H](O)CC[C@@]4(O)[C@@H](C2)N(CC2CCC2)CC[C@]314 [Nalbuphine HCl], the “solubility in Miglyol” value [1] was “not soluble”.
Work on CCCNC(C)C(=O)Nc1ccccc1C (stereo not drawn) [Prilocaine Base] yielded a solubility (physchem) of roughly 137 mg/mL (≈ 622 mM).
For CCCC1O[C@@H]2C[C@H]3[C@@H]4CCC5=CC(=O)C=C[C@]5(C)[C@H]4[C@@H](O)C[C@]3(C)[C@]2(C(=O)CO)O1 (stereo partly drawn) [Budesonide], the “solubility in Miglyol with the addition of heat or menthol” value [3] was “appeared to dissolve; also recorded: soluble with the addition of heat or menthol”.
With C=CCN1CC[C@]23c4c5ccc(O)c4O[C@H]2C(=O)CC[C@@]3(O)[C@H]1C5 [Naloxone] the “solubility in Miglyol” value [1] was “sparingly soluble”.
